# Results published in patent US20260265331A1, “GLYCOSYLATED NEUROPEPTIDE DERIVATIVE INCLUDING NEUROPEPTIDE SEQUENCE AND SUGAR CHAIN, PHARMACEUTICAL COMPOSITION, INTRANASAL/NASAL DROP FORMULATION, AND USE OF GLYCOSYLATED NEUROPEPTIDE DERIVATIVE” (TOKYO UNIVERSITY OF SCIENCE FOUNDATION, priority 2022, published 2026).
# Where no end group is shown, it is not given here. The star is where a group is joined. Cam = NC(=O)C*
# What was measured:
# [1] = Distribution in brain by immunostaining of frozen brain sections (Examples 6 and 7); format: in vivo, mice; conditions: Example 7, 3.0 nmol/mouse intranasal
# Protocol: The brain was isolated 5 minutes after the administration and 20 minutes after the administration, respectively.
# The brain isolated 5 minutes after the intranasal administration was subjected to infiltration fixation with 4% PFA at 4° C. overnight without performing perfusion fixation. The isolation of the brain 20 minutes after the intranasal administration was performed by the following process.
# The mouse was fixed in a supine position under anesthesia with isoflurane, and the chest was incised. The tissue was fixed by perfusing with PBS, and subsequently with 4% PFA, from the left chamber of the heart throughout the whole body. The isolated brain was preserved in a 4% PFA solution. On the day following the isolation, the brain samples were substituted with 20% sucrose overnight (4° C.), and further with 30% sucrose overnight (4° C.). Thereafter, a frozen section with a thickness of 30 μm was prepared using a cryostat (CM3050S; Leica Microsystems).
# The frozen brain section was mounted on a slide glass, and a circle was drawn around the section with a liquid blocker. A blocking buffer was added inside the circle and the section was subjected to blocking for 30 minutes at room temperature. Thereafter, the section was added with a first antibody solution including a GLP-2 polyclonal antibody, diluted by 200 times with a blocking solution, and subjected to incubation for 1 hour at room temperature. After rinsing three times with 1×PBS, the section was added with a second antibody solution including Alexa Fluor (trademark) 568 Goat Anti-Mouse IgG H&L, diluted by 500 times with a BSA/PBS solution, and subjected to incubation for 1 hour at room temperature. After rinsing three times with 1×PBS, the section was mounted with ProLong (trademark) Diamond Antifade Mountant. After confirming the solidification of the mountant, the section was subjected to fluorescent observation and imaging with a confocal laser microscope (TCS SP8; Leica) and a software (Leica Application Suite X Software; Leica).
# Mice were intranasally administered with 16% DMSO or the GLP-2 derivatives (3.0 nmol/mouse), and the brain was isolated 5 minutes, 10 minutes, 20 minutes and 60 minutes after the administration.
# The brain isolated 5 minutes or 10 minutes after the intranasal administration was subjected to infiltration fixation with 4% PFA at 4° C. overnight without performing perfusion fixation. The isolation of the brain 20 minutes or 60 minutes after the intranasal administration was performed by the following process.
# Sections of the olfactory bulb (OB) including olfactory nerves, pons/principal sensory nucleus of trigeminal nerve (Pr5), hippocampus (HIP) and dorsomedial nucleus of the hypothalamus (DMH) were prepared by referring to the Nissil staining images and the brain map (Paxinos and Franklin, 2003).
# The frozen brain section was mounted on a slide glass, and a circle was drawn around the section with a liquid blocker. A blocking buffer was added inside the circle and the section was subjected to blocking for 30 minutes at room temperature. Thereafter, the section was added with a first antibody solution including a GLP-2 polyclonal antibody, diluted by 200 times with a blocking solution, and subjected to incubation for 1 hour at room temperature. […]
# [2] = Quantification by GLP-2 ELISA of amount of migration to brain; format: in vivo, mice; conditions: 6.0 nmol/mouse intranasal, brain isolated 20 minutes after administration; FIG. 5
# Protocol: Mice were intranasally administered with 16% DMSO or the GLP-2 derivatives (6.0 nmol/mouse). The brain was isolated 20 minutes after the administration, and homogenized with BioMasher II (Nippi, Tokyo, Japan). A sample was prepared by performing centrifugal separation by 1000×g (4° C.) for 15 minutes and collecting a supernatant. The amount of the GLP-2 derivative in the sample was quantified using a GLP-2 ELISA kit. Specifically, a cleaning process including filling each well of a measurement plate with a cleaning fluid (350 μL) and suctioning the cleaning fluid with a pipette was performed three times. […] Finally, an enzyme reaction stop solution (100 μL) was added and an absorbance at 490 nm was measured with ARVO (PerkinElmer Japan Co., Ltd., Kanagawa, Japan) to calculate the concentration of a GLP-2 derivative.
# Mice were intranasally administered with the PAS-CPP-GLP-2 derivative prepared in Example 1 (C-terminus 11-sugar, no linker, C11), the PAS-CPP-GLP-2 derivative (N-terminus 11-sugar, no linker, N11), and the PAS-CPP-GLP-2 derivative glycosylated via a C6 alkylene group (N-terminus 11-sugar, with C6 linker, C6), respectively (6.0 nmol/mouse). […] The amount of the GLP-2 derivative in the sample was quantified using a GLP-2 ELISA kit. […]
substance,measurement,setting,value
FFLIPKGRRRRRRRRGGHADGSFSDEMNTILDNLAARDFINWLIQTKITDC(Cam)-OH [PAS-CPP-GLP-2 derivative (no sugar)],fluorescence at OB and Pr5,"[1]; 5 minutes, FIG. 7A",a significant degree of fluorescence was observed
same,fluorescence at HIP and DMH,"[1]; 20 minutes, FIG. 7B",intense fluorescence was observed
same,fluorescence at OB,"[1]; 20 minutes, FIG. 7B",a significant degree of fluorescence was observed at OB
same,fluorescence intensity at OB or Pr5 relative to 5 minutes,"[1]; 20 minutes, FIG. 7B",weaker than the fluorescence observed 5 minutes after the administration
same,fluorescence at HIP and DMH,"[1]; 60 minutes, FIG. 7C",fluorescence was not observed
same,amount of GLP-2 derivative in brain (ELISA),[2],below the detection limit
